{"source": "patent US7858349B2", "about": "“Anti-cancer compounds” (The Regents of the University of Colorado, priority 1999, dated 2010)", "data": [{"tested_on": "SCLC strain SHP-77", "assay": "MTT assay for cell survival, SCLC SHP-77 in vitro", "assay_type": "cell-based, human", "conditions": "ED50 for killing of SCLC strain SHP-77 in vitro, 4 days, 0 = no detectable activity, read-out: SCLC SHP-77 IC50", "units": {"IC50": "µM"}, "values": [{"smiles": "O=C(/C=C/c1c(F)c(F)c(F)c(F)c1F)N[C@@H](Cc1ccc(OCc2c(Cl)cccc2Cl)cc1)C(=O)N1CCN(C/C=C/c2ccccc2)CC1", "note": "[Analog M-1564, F5c-OC2Y-tCip]", "IC50": 4}, {"smiles": "CC1(C)CC(NC(=O)[C@H](Cc2ccc(OCc3c(Cl)cccc3Cl)cc2)NC(=O)c2ccc(N)nc2)CC(C)(C)N1", "note": "[Analog M-1596, 6Ani-OC2Y-Atmp]", "IC50": "> 60"}, {"smiles": "O=C(/C=C/c1c(F)c(F)c(F)c(F)c1F)N[C@@H](Cc1ccc(OCc2c(Cl)cccc2Cl)cc1)C(=O)N1CCCN(Cc2ccccc2)CC1", "note": "[Analog M-1606, F5c-OC2Y-Bhp]", "IC50": 17}, {"smiles": "CC(=O)Nc1nc(C)c(S(=O)(=O)N[C@@H](Cc2ccc(OCc3c(Cl)cccc3Cl)cc2)C(=O)NC2CC(C)(C)NC(C)(C)C2)s1", "note": "[Analog M-1628, Amts-OC2Y-Atmp]", "IC50": 45}, {"smiles": "O=C(/C=C/c1c(F)c(F)c(F)c(F)c1F)N[C@@H](Cc1ccc(OCc2c(Cl)cccc2Cl)cc1)C(=O)NCCCn1ccnc1", "note": "[Analog M-1642, F5c-OC2Y-Apia]", "IC50": 42}, {"smiles": "CC1(C)CC(NC(=O)C(Cc2ccc(OCc3c(Cl)cccc3Cl)cc2)NC(=O)C=Cc2ccccc2Cl)CC(C)(C)N1", "note": "(stereo not drawn) [Analog M-1652, 2Ccn-OC2Y-Atmp]", "IC50": 4.1}, {"smiles": "O=C(N[C@@H](Cc1ccc(OCc2c(Cl)cccc2Cl)cc1)C(=O)N1CCN(C/C=C/c2ccccc2)CC1)C(=Cc1ccccc1)c1ccccc1", "note": "[Analog M-1654, Pcn-OC2Y-tCip]", "IC50": "> 60"}, {"smiles": "O=C(CCCC[C@@H]1SC[C@@H]2NC(=O)N[C@@H]21)N[C@@H](Cc1ccc(OCc2c(Cl)cccc2Cl)cc1)C(=O)N1CCN(C/C=C/c2ccccc2)CC1", "note": "[Analog M-1656, Biot-OC2Y-tCip]", "IC50": 5.5}, {"smiles": "CN1CCN(CCCNC(=O)[C@H](Cc2ccc(OCc3c(Cl)cccc3Cl)cc2)NC(=O)C(=Cc2ccccc2)c2ccccc2)CC1", "note": "[Analog M-1658, Pcn-OC2Y-Amp]", "IC50": 10}, {"smiles": "O=C(N[C@@H](Cc1ccc(OCc2c(Cl)cccc2Cl)cc1)C(=O)NC1CCN(Cc2ccccc2)CC1)C(=Cc1ccccc1)c1ccccc1", "note": "[Analog M-1660, Pcn-OC2Y-Abzp]", "IC50": 31}, {"smiles": "CC1CN(C(=O)C(Cc2ccc(OCc3c(Cl)cccc3Cl)cc2)NC(=O)C(=Cc2ccccc2)c2ccccc2)CC(C)N1Cc1ccccc1", "note": "(stereo not drawn) [Analog M-1662, Pcn-OC2Y-cDmbp]", "IC50": 20}, {"smiles": "CC1CN(C(=O)C(Cc2ccc(OCc3c(Cl)cccc3Cl)cc2)NC(=O)C2CCn3c(C(=O)c4ccccc4)ccc32)CC(C)N1Cc1ccccc1", "note": "(stereo not drawn) [Analog M-1664, Ktlc-OC2Y-cDmbp]", "IC50": "> 60"}, {"smiles": "O=C(c1ccccc1)c1ccc2n1CCC2C(=O)N[C@@H](Cc1ccc(OCc2c(Cl)cccc2Cl)cc1)C(=O)N1CCN(C/C=C/c2ccccc2)CC1", "note": "(stereo partly drawn) [Analog M-1666, Ktlc-OC2Y-tCip]", "IC50": "> 60"}, {"smiles": "O=C(c1ccccc1)c1ccc2n1CCC2C(=O)N[C@@H](Cc1ccc(OCc2c(Cl)cccc2Cl)cc1)C(=O)NC1CCN(Cc2ccccc2)CC1", "note": "(stereo partly drawn) [Analog M-1668, Ktlc-OC2Y-Abzp]", "IC50": 4.6}, {"smiles": "O=C(N[C@@H](Cc1ccc(OCc2c(Cl)cccc2Cl)cc1)C(=O)N1CCN(c2ncccn2)CC1)C(=Cc1ccccc1)c1ccccc1", "note": "[Analog M-1670, Pcn-OC2Y-Pmpz]", "IC50": 50}, {"smiles": "O=C(CC12CC3CC(CC(C3)C1)C2)N[C@@H](Cc1ccc(OCc2c(Cl)cccc2Cl)cc1)C(=O)N1CCN(c2ncccn2)CC1", "note": "[Analog M-1672, Aaa-OC2Y-Pmpz]", "IC50": "> 50"}, {"smiles": "CN1CCN(CCCNC(=O)[C@H](Cc2ccc(OCc3c(Cl)cccc3Cl)cc2)NC(=O)C2CCn3c(C(=O)c4ccccc4)ccc32)CC1", "note": "(stereo partly drawn) [Analog M-1674, Ktlc-OC2Y-Amp]", "IC50": 3.2}, {"smiles": "CN1CCN(CCCNC(=O)[C@H](Cc2ccc(OCc3c(Cl)cccc3Cl)cc2)NC(=O)C23CC4CC(CC(C4)C2)C3)CC1", "note": "[Analog M-1676, Aca-OC2Y-Amp]", "IC50": 6.2}, {"smiles": "O=C(NC1CCN(Cc2ccccc2)CC1)[C@H](Cc1ccc(OCc2c(Cl)cccc2Cl)cc1)NC(=O)C12CC3CC(CC(C3)C1)C2", "note": "[Analog M-1678, Aca-OC2Y-Abzp]", "IC50": 7.8}, {"smiles": "O=C([C@H](Cc1ccc(OCc2c(Cl)cccc2Cl)cc1)NC(=O)C12CC3CC(CC(C3)C1)C2)N1CCN(c2ncccn2)CC1", "note": "[Analog M-1680, Aca-OC2Y-Pmpz]", "IC50": 33}, {"smiles": "CC1(C)CC(NC(=O)[C@@H](Cc2ccc(OCc3c(Cl)cccc3Cl)cc2)NC(=O)C(=Cc2ccccc2)c2ccccc2)CC(C)(C)N1", "note": "[Analog M-1682, Pcn-D-OC2Y-Atmp]", "IC50": 1.8}, {"smiles": "CC1(C)CC(NC(=O)C(NC(=O)C(=Cc2ccccc2)c2ccccc2)C2Cc3ccccc3C2)CC(C)(C)N1", "note": "(stereo not drawn) [Analog M-1684, Pcn-Igl-Atmp]", "IC50": 4.2}, {"smiles": "CC1(C)CC(NC(=O)C(NC(=O)C2CCn3c(C(=O)c4ccccc4)ccc32)C2Cc3ccccc3C2)CC(C)(C)N1", "note": "(stereo not drawn) [Analog M-1686, Ktlc-Igl-Atmp]", "IC50": 14}, {"smiles": "COc1ccc2c(c1)c(CC(=O)NC(C(=O)NC1CC(C)(C)NC(C)(C)C1)C1Cc3ccccc3C1)c(C)n2C(=O)c1ccc(Cl)cc1", "note": "(stereo not drawn) [Analog M-1688, Indo-Igl-Atmp]", "IC50": 4}, {"smiles": "O=C(C=Cc1c(F)c(F)c(F)c(F)c1F)NC(C(=O)N1CCN(Cc2c(F)c(F)c(F)c(F)c2F)CC1)C1Cc2ccccc2C1", "note": "(stereo not drawn) [Analog M-1690, F5c-Igl-Pipz(F5b)]", "IC50": 25}, {"smiles": "CC1(C)CC(NC(=O)[C@H](Cc2ccc(OCc3c(Cl)cccc3Cl)cc2)NC(=O)C(Cl)Cl)CC(C)(C)N1", "note": "[Analog M-1692, Dcla-OC2Y-Atmp]", "IC50": 7.2}, {"smiles": "CN1CCN(CCCNC(=O)C(Cc2ccc(OCc3c(Cl)cccc3Cl)cc2)NC(=O)c2c3ccccc3nc3ccccc23)CC1", "note": "(stereo not drawn) [Analog M-1700, Acrc-OC2Y-Amp]", "IC50": 7.3}, {"smiles": "CN1CCN(CCCNC(=O)C(Cc2ccc(OCc3c(Cl)cccc3Cl)cc2)NC(=O)c2ccc3c(c2)C(=O)c2ccccc2C3=O)CC1", "note": "(stereo not drawn) [Analog M-1702, Aq2c-OC2Y-Amp]", "IC50": 3.6}, {"smiles": "CC1(C)CC(NC(=O)C(Cc2ccc(OCc3c(Cl)cccc3Cl)cc2)NC(=O)c2cccnc2)CC(C)(C)N1", "note": "(stereo not drawn) [Analog M-1704, Pyrc-OC2Y-Atmp]", "IC50": 25}, {"smiles": "CC1(C)CC(NC(=O)C(Cc2ccc(OCc3c(Cl)cccc3Cl)cc2)NC(=O)c2cccc3ccccc23)CC(C)(C)N1", "note": "(stereo not drawn) [Analog M-1706, 1Nap-OC2Y-Atmp]", "IC50": 4.2}, {"smiles": "CC1(C)CC(NC(=O)C(Cc2ccc(OCc3c(Cl)cccc3Cl)cc2)NC(=O)Cc2cccc3ccccc23)CC(C)(C)N1", "note": "(stereo not drawn) [Analog M-1708, 1Nala-OC2Y-Atmp]", "IC50": 7.2}, {"smiles": "CC1(C)CC(NC(=O)C(Cc2ccc(OCc3c(Cl)cccc3Cl)cc2)NC(=O)Cc2ccc3ccccc3c2)CC(C)(C)N1", "note": "(stereo not drawn) [Analog M-1710, 2Nala-OC2Y-Atmp]", "IC50": 1.7}, {"smiles": "CC1(C)CC(NC(=O)C(Cc2ccc(OCc3c(Cl)cccc3Cl)cc2)NC(=O)c2cccnc2Cl)CC(C)(C)N1", "note": "(stereo not drawn) [Analog M-1714, 2Cln-OC2Y-Atmp]", "IC50": 4}, {"smiles": "Cc1nc2ccccc2c(C(=O)NC(Cc2ccc(OCc3c(Cl)cccc3Cl)cc2)C(=O)NC2CC(C)(C)NC(C)(C)C2)c1O", "note": "(stereo not drawn) [Analog M-1716, Hmqc-OC2Y-Atmp]", "IC50": 7.2}, {"smiles": "C=CC(=O)NC(NC(=O)C=C)C(=O)NC(Cc1ccc(OCc2c(Cl)cccc2Cl)cc1)C(=O)NC1CC(C)(C)NC(C)(C)C1", "note": "(stereo not drawn) [Analog M-1718, Baaa-OC2Y-Atmp]", "IC50": "> 60"}, {"smiles": "O=C(C=Cc1c(F)c(F)c(F)c(F)c1F)NC(Cc1c(F)c(F)c(F)c(F)c1F)C(=O)N1CCN(Cc2c(F)c(F)c(F)c(F)c2F)CC1", "note": "(stereo not drawn) [Analog M-1730, F5c-F5F-Pipz(F5b)]", "IC50": 21}, {"smiles": "O=C(C=Cc1c(F)c(F)c(F)c(F)c1F)NC(Cc1ccc(OCc2c(Cl)cccc2Cl)cc1)C(=O)N1CCN(Cc2c(F)c(F)c(F)c(F)c2F)CC1", "note": "(stereo not drawn) [Analog M-1732, F5c-OC2Y-Pipz(F5b)]", "IC50": 24}, {"smiles": "O=C(NC(Cc1ccc(OCc2c(Cl)cccc2Cl)cc1)C(=O)N1CCN(Cc2c(F)c(F)c(F)c(F)c2F)CC1)C(=Cc1ccccc1)c1ccccc1", "note": "(stereo not drawn) [Analog M-1734, Pcn-OC2Y-Pipz(F5b)]", "IC50": 24}, {"smiles": "CC1(C)CC(NC(=O)C(Cc2ccc(OCc3c(Cl)cccc3Cl)cc2)NC(=O)C(C)(C)C)CC(C)(C)N1", "note": "(stereo not drawn) [Analog M-1736, Piva-OC2Y-Atmp]", "IC50": 13}, {"smiles": "COc1ccc2c(CC(=O)NC(Cc3ccc(OCc4c(Cl)cccc4Cl)cc3)C(=O)NC3CC(C)(C)NC(C)(C)C3)cc(=O)oc2c1", "note": "(stereo not drawn) [Analog M-1744, Mcoa-OC2Y-Atmp]", "IC50": 7.1}, {"smiles": "CCC(C(=O)NC(Cc1ccc(OCc2c(Cl)cccc2Cl)cc1)C(=O)NC1CC(C)(C)NC(C)(C)C1)C1CCCCC1", "note": "(stereo not drawn) [Analog M-1746, Chbu-OC2Y-Atmp]", "IC50": 1.6}, {"smiles": "CC(C)(C)CC(=O)NC(Cc1ccc(OCc2c(Cl)cccc2Cl)cc1)C(=O)NC1CC(C)(C)NC(C)(C)C1", "note": "(stereo not drawn) [Analog M-1748, tBua-OC2Y-Atmp]", "IC50": 7.1}, {"smiles": "CO[C@](C(=O)NC(Cc1ccc(OCc2c(Cl)cccc2Cl)cc1)C(=O)NC1CC(C)(C)NC(C)(C)C1)(c1ccccc1)C(F)(F)F", "note": "(stereo partly drawn) [Analog M-1750, (S)-MTPA-OC2Y-Atmp]", "IC50": 4.2}, {"smiles": "CO[C@@](C(=O)NC(Cc1ccc(OCc2c(Cl)cccc2Cl)cc1)C(=O)NC1CC(C)(C)NC(C)(C)C1)(c1ccccc1)C(F)(F)F", "note": "(stereo partly drawn) [Analog M-1752, (R)-MTPA-OC2Y-Atmp]", "IC50": 4}, {"smiles": "CC1(C)CC(NC(=O)C(Cc2ccc(OCc3c(Cl)cccc3Cl)cc2)NC(=O)C(c2ccc(Cl)cc2)c2ccc(Cl)cc2)CC(C)(C)N1", "note": "(stereo not drawn) [Analog M-1754, Bcpa-OC2Y-Atmp]", "IC50": 1.5}, {"smiles": "CC1(C)CC(NC(=O)C(Cc2cc(I)c(OCc3c(Cl)cccc3Cl)c(I)c2)NC(=O)C(=Cc2ccccc2)c2ccccc2)CC(C)(C)N1", "note": "(stereo not drawn) [Analog M-1760, Pcn-OCIY-Atmp]", "IC50": 2}, {"smiles": "CC1(C)CC(NC(=O)C(Cc2cc(I)c(OCc3c(Cl)cccc3Cl)c(I)c2)NC(=O)C(c2ccc(Cl)cc2)c2ccc(Cl)cc2)CC(C)(C)N1", "note": "(stereo not drawn) [Analog M-1762, Bcpa-OCIY-Atmp]", "IC50": 3}, {"smiles": "CC1(C)CC(NC(=O)C(Cc2ccc(-c3ccccc3)cc2)NC(=O)C(=Cc2ccccc2)c2ccccc2)CC(C)(C)N1", "note": "(stereo not drawn) [Analog M-1764, Pcn-Bip-Atmp]", "IC50": 2.5}, {"smiles": "CC1(C)CC(NC(=O)C(Cc2ccc(-c3ccccc3)cc2)NC(=O)C(Oc2ccc(Cl)cc2)Oc2ccc(Cl)cc2)CC(C)(C)N1", "note": "(stereo not drawn) [Analog M-1766, Bcpoa-Bip-Atmp]", "IC50": 2}, {"smiles": "CC1(C)CC(NC(=O)C2Cc3ccccc3CN2C(=O)C(=Cc2ccccc2)c2ccccc2)CC(C)(C)N1", "note": "(stereo not drawn) [Analog M-1770, Pcn-Tic-Atmp]", "IC50": 5.4}, {"smiles": "CC1(C)CC(NC(=O)C(Cc2ccc(OCc3c(Cl)cccc3Cl)cc2)NC(=O)C=Cc2ccc(-c3ccccc3)cc2)CC(C)(C)N1", "note": "(stereo not drawn) [Analog M-1776, Pcin-OC2Y-Atmp]", "IC50": 1.4}]}]}
